Several values for one entry are separate records, joined by “and”; a condition that tells them apart may be missing. Equal values may be shown once. Entries after “also recorded” stand apart in the source; their conditions may differ. Read-outs that look alike come from different tables or passages of the source.
Legend:
[1] = test system: Mia-PaCa-2 cells; assay: Growth factor-induced proliferation (MTT), Mia-PaCa-2; type: cell-based, human
Procedure: (§1) Cell culture and MTT assay: Human pancreatic cancer cell lines are routinely grown in DMEM (Colo-357 and Mia-PaCa-2) or RPMI (Aspc-1, BxPc-3, Capan-1, and T3M4) supplemented with 10% FBS, 100 U/ml penicillin, and 100 μg/ml streptomycin (complete medium). To assess cell proliferation, the MTT test is employed. […] After 48 or 72 hours of incubation, 3-(4,5-methylthiazol-2-yl)-2,5-diphenyl-tetrazolium bromide (MTT) is added (50 μg/well) for 4 hours. Formazan products are solubilized with acidic isopropanol, and the optical density is measured at 570 nm. […] All experiments are performed in triplicate.
(§2) EGF-induced proliferation of both Mia-PaCa-2 and T3M4 cell lines in a dose-dependent manner is seen with maximal effects of +72% ±7.5% (Mia-PaCa-2) and +52% ±23% (T3M4). […] FGF-2 markedly stimulates cell growth in Mia-PaCa-2 cell lines with maximal effects of +79% ±6%, and only slightly stimulated T3M4 cell lines, with maximal effects of +7% ±4%. […] Both cell lines are less sensitive to IGF-1 stimulation compared with EGF and FGF-2, with maximal effects of +24% ±2% in Mia-PaCa-2 and +17% ±4% in. T3M4.

[2] = test system: T3M4 cells; assay: Growth factor-induced proliferation (MTT), T3M4; type: cell-based, human
Procedure: as §1, §2

[3] = test system: MAPK; assay: Western blot of MAPK phosphorylation in growth factor-conditioned cells; type: cell-based, human
Procedure: (§3) Western blot analysis: Cell culture monolayers are washed twice with ice-cold PBS and lysed with buffer containing Tris-HCl (50 mM, pH 7.4), NP-40 (1%), Na-deoxycholate (0.25%), NaCl (150 mM), EDTA (1 mM), PMSF (1 mM), Na3VO4 (1 mM), NaF (1 mM) and one tablet of complete mini-EDTA-free protease inhibitor cocktail (in 10 ml buffer). Protein concentration is determined by the BCA protein assay (Pierce Chemical Co., Rockford, Ill., USA). 30 μg of cell lysates are separated on SDS-polyacrylamide gels and electroblotted onto nitrocellulose membranes. Membranes are then incubated in blocking solution (5% nonfat-milk in 20 mM Tris-HCl, 150 mM NaCl, 0.1% Tween-20) (TBS-T), followed by incubation with the indicated antibodies at 4° C. overnight. The membranes are then washed in TBS-T and incubated with HRPO-conjugated secondary antibodies for 1 hour at room temperature. Antibody detection is performed with an enhanced chemiluminescence reaction. Statistical analysis: Results are expressed as mean±SEM. For statistical analysis, the Student's t-test is used. Significance is defined as p<0.05.

[4] = test system: BxPc-3, Colo-357 and Capan-1; assay: PDGF effect on cell growth, three additional cell lines; type: cell-based, human; conditions: BxPc-3, Colo-357 and Capan-1, growth factor alone
Procedure: as §1, §2

[5] = test system: TAKA-1 cells; assay: MTT cell growth assay, TAKA-1 cells (Example 1); type: cell-based, Syrian golden hamster; conditions: 72 h
Text: (§4) Cell culture and proliferation assay: The following materials are purchased: FCS, RPMI and Dulbecco's modified Eagle medium (DMEM), trypsin-EDTA solution, penicillin-streptomycin solution from Biochrom K G (Berlin, Germany). All the other reagents are from Sigma Chemical Co. (St. Louis, Mo., USA). ASPC-1, MIA PaCA-2, human pancreatic cell lines are obtained from American Type Culture Collection (Rockville, Md.). Compound I is kindly provided by Novartis Pharma AG (Basel, Switzerland). T3M4 human pancreatic cell lines are a gift from Dr. R. S. Metzgar (Durham, N.C., USA). TAKA-1 immortalized Syrian golden hamster pancreatic ductal cells are a gift from Prof. P. Pour (University of Nebraska, Omaha, Nebr., USA). Human pancreatic cancer cell lines are routinely grown in DMEM (MIA-PaCA-2) or RPMI (ASPC-1, T3M4) supplemented with 10% FCS, 100 U/ml penicillin and 100 μg/ml streptomycin (complete medium).
TAKA-1 cells are grown in RPMI supplemented with 10% FCS, 100 U/ml penicillin and 100 μg/ml streptomycin. Cells are seeded overnight at a density of 5000 cells/well in 96-well plates and the proliferation assay is performed as described above. […] After 72 hours, 3-(4,5-methylthiazol-2-yl)-2,5-diphenyl-tetrazolium bromide (MTT) is added (50 μg/well) for 4 hours. Cellular MTT is solubilized with acidic isopropanol and the optical density is measured at 570 nm using a plate reader (Dynatech MR 7000). All experiments are performed in triplicates.
Statistical analysis: Results are expressed as mean±SD. For statistical analysis, the Student t-test is used. Significance is defined as p<0.05.

[6] = test system: ASPC-1 cells; assay: MTT cell growth assay, ASPC-1 cells (Example 1); type: cell-based, human
Text: as §4
(§5) TAKA-1 cells are grown in RPMI supplemented with 10% FCS, 100 U/ml penicillin and 100 μg/ml streptomycin. Cells are seeded overnight at a density of 5000 cells/well in 96-well plates and the proliferation assay is performed as described above. […] Cellular MTT is solubilized with acidic isopropanol and the optical density is measured at 570 nm using a plate reader (Dynatech MR 7000). […]
(§6) Statistical analysis: Results are expressed as mean±SD. […]

[7] = test system: MIA PaCA-2 cells; assay: MTT cell growth assay, MIA PaCA-2 cells (Example 1); type: cell-based; conditions: Homo sapiens, MIA PaCa-2, 72 h, Mia-Paca-2, 75 μM Compound I, read-out: Percent growth inhibition by comparison with control cell growth
Text: as §4, §5, §6

[8] = test system: T3M4 cells; assay: MTT cell growth assay, T3M4 cells (Example 1); type: cell-based, human
Text: as §4, §5, §6

[9] = test system: TAKA-1 cells and the three pancreatic cancer cell lines; assay: MTT cell growth assay, span over all four lines (Example 1); type: cell-based; conditions: span over TAKA-1 and three pancreatic cancer cell lines
Text: as §4, §5, §6

[10] = test system: ASPC-1 cells; assay: GI50 by MTT assay, Aspc-1 (Example 2); type: cell-based; conditions: Homo sapiens, ASPC1, read-out: GI50 concentration
Text: (§7) Material and Methods: RPMI-1640 DMEM, trypsin-EDTA, and penicillin-streptomycin are purchased from Invitrogen (Karlsruhe, Germany); FBS from PAN Biotech (Aidenbach, Germany); human recombinant PDGF, IGF-1 and FGF-2 from R&D Systems (Abingdon, United Kingdom), and EGF from Upstate Biotechnology (Hamburg, Germany). Phospho-PDGFR-beta (tyr857) and P-EGFR (tyr1173) polyclonal antibodies are purchased from Santa Cruz Biotechnology, Inc. (Santa Cruz, Calif., USA). Phospho-p44/42 MAPK (Thr202/Tyr204) antibodies are purchased from Cell Signaling Technology (Frankfurt, Germany), anti-rabbit IgG HRPO-linked antibodies and ECL immunoblotting detection reagents from Amersham Biosciences (Amersham Life Science, Amersham, UK), and anti-goat IgG-HPRO peroxidase linked antibodies from Santa Cruz Biotechnology, Inc. (Santa Cruz, Calif., USA). Complete mini-EDTA-free protease inhibitor cocktail tablets and Annexin-V-Fluos are purchased from Roche GmbH (Mannheim, Germany). All other reagents are from Sigma Chemical Company (Taufkirchen, Germany).
(§8) Cell culture and MTT assay: Human pancreatic cancer cell lines are routinely grown in DMEM (Colo-357 and Mia-PaCa-2) or RPMI (Aspc-1, BxPc-3, Capan-1, and T3M4) supplemented with 10% FBS, 100 U/ml penicillin, and 100 μg/ml streptomycin (complete medium). […] Formazan products are solubilized with acidic isopropanol, and the optical density is measured at 570 nm. […]

[11] = test system: BxPc-3 cells; assay: GI50 by MTT assay, BxPc-3 (Example 2); type: cell-based; conditions: Homo sapiens, BxPc-3, complete medium (10% FBS), 48 h, read-out: GI50 concentration
Text: as §7, §8

[12] = test system: Capan-1 cells; assay: GI50 by MTT assay, Capan-1 (Example 2); type: cell-based; conditions: Homo sapiens, Capan-1, complete medium (10% FBS), 48 h, read-out: GI50 concentration
Text: as §7, §8

[13] = test system: Colo-357 cells; assay: GI50 by MTT assay, Colo-357 (Example 2); type: cell-based; conditions: Homo sapiens, COLO357, Colo-357, complete medium (10% FBS), 48 h, read-out: GI50 concentration
Text: as §7, §8

[14] = test system: Mia-PaCa-2 cells; assay: GI50 by MTT assay, Mia-PaCa-2 (Example 2); type: cell-based; conditions: Homo sapiens, read-out: GI50 concentration
Text: as §7, §8

[15] = test system: T3M4 cells; assay: GI50 by MTT assay, T3M4 (Example 2); type: cell-based; conditions: Homo sapiens, T3M4, complete medium (10% FBS), 48 h, read-out: GI50 concentration
Text: as §7, §8

[16] = test system: six tested pancreatic cancer cell lines; assay: GI50 by MTT assay, span over all six pancreatic cancer cell lines; type: cell-based; conditions: Homo sapiens, read-out: GI50 concentration, range over cell lines
Text: as §7, §8

[17] = test system: Mia-PaCa-2 cells; assay: Propidium iodide staining of cell death, Mia-PaCa-2; type: cell-based, human; conditions: Mia-PaCa-2, Compound I at GI50, 1% FBS medium; control 10.7% ±2.5%
Text: (§9) The resulting DNA histograms are interpreted using the Cell Quest Pro software (Becton Dickinson and Company, New York, USA).

[18] = test system: T3M4 cells; assay: Propidium iodide staining of cell death, T3M4; type: cell-based, human; conditions: T3M4, Compound I at GI50, 1% FBS medium; control 5.7% ±2.8%
Text: as §9

[19] = test system: pancreatic cancer cell lines; assay: FACS cell cycle analysis; type: cell-based, human; conditions: 48 hours of incubation, Compound I at GI50, compared to untreated cells
Text: as §9

[20] = target: T1, EGFR (Homo sapiens, UniProt P00533); assay: Western blot of EGFR phosphorylation in growth factor-conditioned cells; type: cell-based; conditions: growth factor-conditioned Mia-PaCa-2 and T3M4 cells
T1 construct: endogenous in cells; host or cells: Mia-PaCa-2 and T3M4 pancreatic cancer cells
Procedure: as §3

[21] = test system: pancreatic tumor cells; conditions: complete medium (10% FCS) and 1% FCS medium
Text: as §9

[22] = test system: Lung cancer (6 cell lines); conditions: other reported cancer cells, read-out: GI50 concentration; cited from earlier work
[23] = test system: Lung cancer (A549 cell line); conditions: other reported cancer cells, read-out: GI50 concentration; cited from earlier work
[24] = test system: colorectal cancer (HT29); conditions: other reported cancer cells, read-out: GI50 concentration; cited from earlier work
[25] = test system: CML (K562 cell lines); conditions: other reported cancer cells, read-out: GI50 concentration; cited from earlier work

T1 sequence (P00533 25-1210): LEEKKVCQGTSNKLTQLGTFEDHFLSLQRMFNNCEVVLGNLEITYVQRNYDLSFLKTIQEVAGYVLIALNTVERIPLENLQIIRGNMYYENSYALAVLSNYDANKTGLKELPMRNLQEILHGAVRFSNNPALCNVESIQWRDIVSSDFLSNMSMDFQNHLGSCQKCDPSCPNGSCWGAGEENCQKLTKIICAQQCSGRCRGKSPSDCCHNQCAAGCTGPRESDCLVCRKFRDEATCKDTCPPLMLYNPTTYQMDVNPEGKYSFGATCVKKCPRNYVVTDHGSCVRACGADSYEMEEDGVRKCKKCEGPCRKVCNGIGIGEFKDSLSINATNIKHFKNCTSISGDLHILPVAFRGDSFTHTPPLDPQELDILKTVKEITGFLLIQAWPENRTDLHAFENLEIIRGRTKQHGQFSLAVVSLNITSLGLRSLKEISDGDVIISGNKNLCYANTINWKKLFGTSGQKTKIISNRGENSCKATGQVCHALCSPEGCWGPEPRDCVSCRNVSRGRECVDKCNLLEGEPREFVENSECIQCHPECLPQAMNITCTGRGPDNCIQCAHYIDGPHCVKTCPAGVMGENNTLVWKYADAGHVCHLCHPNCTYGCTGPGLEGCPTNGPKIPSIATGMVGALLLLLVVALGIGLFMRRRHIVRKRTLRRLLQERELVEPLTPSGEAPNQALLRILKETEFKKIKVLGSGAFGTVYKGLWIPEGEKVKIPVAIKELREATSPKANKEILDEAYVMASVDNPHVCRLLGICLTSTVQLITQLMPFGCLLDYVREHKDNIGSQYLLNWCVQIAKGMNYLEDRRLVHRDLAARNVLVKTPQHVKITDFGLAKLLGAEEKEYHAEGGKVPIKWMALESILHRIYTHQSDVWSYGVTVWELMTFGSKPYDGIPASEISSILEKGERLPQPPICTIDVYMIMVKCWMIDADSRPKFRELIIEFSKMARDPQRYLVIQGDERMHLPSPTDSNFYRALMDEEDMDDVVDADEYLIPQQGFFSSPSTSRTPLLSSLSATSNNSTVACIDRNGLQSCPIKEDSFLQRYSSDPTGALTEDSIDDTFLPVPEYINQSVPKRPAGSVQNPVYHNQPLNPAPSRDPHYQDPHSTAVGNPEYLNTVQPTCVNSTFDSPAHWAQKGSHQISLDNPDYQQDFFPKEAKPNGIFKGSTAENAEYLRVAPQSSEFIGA

PDGF
Induction of cell proliferation by growth factor ([1]; Mia-PaCa-2, growth factor alone): does not induce cell proliferation | Induction of cell proliferation by growth factor ([2]; T3M4, growth factor alone): does not induce cell proliferation | Induction of PDGF and MAPK kinase phosphorylation ([3]; Mia-PaCa-2 and T3M4 cells, data not shown): does not induce PDGF and MAPK kinase phosphorylation | Effect of growth factor on cell growth [4]: no effect on cell growth

Cc1ccc(NC(=O)c2ccc(CN3CCN(C)CC3)cc2)cc1Nc1nccc(-c2cccnc2)n1 [Compound I]
inhibition at 25 µM ([5]; Mesocricetus auratus, TAKA-1, 25 μM Compound I, read-out: Percent growth inhibition by comparison with control cell growth): 70.9% | inhibition at 75 µM ([5]; Mesocricetus auratus, TAKA-1, 75 μM Compound I, read-out: Percent growth inhibition by comparison with control cell growth): 90.8% | Percent growth inhibition by comparison with control cell growth ([5]; TAKA-1, 25 μM Compound I, 25 µM): −65% and −67.9% | Percent growth inhibition by comparison with control cell growth ([5]; TAKA-1, 75 μM Compound I, 75 µM): −91.5% and −90.6% | Percent growth inhibition by comparison with control cell growth ([6]; Aspc-1, 5 μM Compound I, 72 h, 5 µM): −12.9% and −4.8% and −3.7% | inhibition at 75 µM ([6]; Homo sapiens, ASPC1, 72 h, Aspc-1, 75 μM Compound I, read-out: Percent growth inhibition by comparison with control cell growth): 85.6% | inhibition at 75 µM [7]: 86.6% | inhibition at 75 µM ([8]; Homo sapiens, T3M4, 72 h, T3M4, 75 μM Compound I, read-out: Percent growth inhibition by comparison with control cell growth): 85.6% | Percent growth inhibition by comparison with control cell growth ([8]; T3M4, 5 μM Compound I, 72 h, 5 µM): −12.9% and −4.8% and −3.8% | Minimal threshold effects on cell growth ([9]; 5 μM Compound I, p>0.05): −4% to −9 | Maximal inhibitory effects on cell growth ([9]; 75 µM Compound I, p<0.001): −77% to −90 | GI50 ([10]; Aspc-1, complete medium (10% FBS), 48 h, MTT): 31.5 µM | GI50 ([10]; Aspc-1, low serum conditions (1% FCS)): 20 µM | GI50 [11]: 21 µM | GI50 [12]: 19 µM | GI50 [13]: 17 µM | GI50 ([14]; Mia-PaCa-2, complete medium (10% FBS), 48 h, MTT): 26 µM | GI50 ([14]; Mia-PaCa-2, low serum conditions (1% FCS)): 9 µM | GI50 [15]: 25 µM | GI50 ([16]; all six pancreatic cancer cell lines, 10% FBS/FCS medium): 17 to 31.5 µM | GI50 ([16]; pancreatic cancer cell lines, low serum conditions (1% FCS)): 9 to 20 µM | Cell death by propidium iodide staining [17]: 33.7±16.5% | Cell death by propidium iodide staining [18]: 26.8% +16.5 | Change in cell cycle pattern [19]: does not reveal any significant changes in the cell cycle pattern; also recorded: no cell cycle change | Inhibitory effect on IGF-1-induced proliferation ([1]; Mia-PaCa-2, IGF-1 plus Compound I at GI50, 72 hours, MTT): no significant inhibitory effects | Inhibitory effect on IGF-1-induced proliferation ([2]; T3M4, IGF-1 plus Compound I at GI50, 72 hours, MTT): no significant inhibitory effects | Inhibition of MAPK activation ([3]; growth factor-conditioned Mia-PaCa-2 and T3M4 cells, Western blot): does not inhibit activation | Inhibition of EGFR activation [20]: does not inhibit activation | Apoptotic cell death [21]: No apoptotic cell death is observed | GI50 [22]: ~5 µM | GI50 [23]: 2 to 3 µM | GI50 [24]: 6 µM | GI50 [25]: 0.56 µM

EGF: epidermal growth factor, EGF from Upstate Biotechnology
Maximal effect of growth factor on cell growth ([1]; Mia-PaCa-2, growth factor alone (absence of Compound I), 72 hours, MTT): +72% ±7.5 | Maximal effect of growth factor on cell growth ([2]; T3M4, growth factor alone (absence of Compound I), 72 hours, MTT): +52% ±23

Reference: patent US20060167006A1, “Method of treatment” (priority 2003, published 2006)
